Assay results from patent publication US20020059032A1, “Rational selection of putative peptides from identified nucleotide or peptide sequences” (priority 1999, published 2002).
pIC50: −log10 of the molar value. Where a SMILES comes first, the peptide text is derived from it.

These compounds were tested against guinea pig brain membranes (assay: Binding test with guinea pig brain membranes). Details: tested on guinea pig brain membranes; read-out: IC50 = 100 μM.
Procedure: Binding Assay Alternative Protocol by Skatron
The experimental conditions are identical for all the binding assay protocols except for the fact that: i) the volume R in operation is 200 μl; ii) the test carried out in 96-well Falcon plates iii) the reaction is directly stopped by filtration on filterMat (ref. 11734) Skatron and the radioactivity associated with the filtrate is evaluated: either directly with a γ counter for the peptides labelled with […]: or with a […] in the presence of 5 ml of scintillating liquid.
Membrane Preparations of Guinea Pig Brains and Binding Assay
The guinea pigs are sacrificed by rupturing their cervical vertibrae, decapitated, and the brains are removed very rapidly and placed into a sucrose-Tris-HCl buffer (0.32 M sucrose 5 mM, Tris-HCl, 0.1 g/l bacitracin) at 4° C. (about 10 ml of buffer per brain). The brains are then homogenized using a Potter device and the homogenate is placed in incubation for 30 minutes at 37° C. under agitation, then centrifuged twice for 35 minutes at 100,000×g at 4° C. The protein content of the membrane preparations is evaluated according to the Bradford method (BioRad, according to the manufacturers protocol).
Bonding of Labelled Agonists to the Guinea Pig Brain Membrane Preparation The membranes are placed in a buffer (50 mM of Tris-HCl, 5 mM of MgCl2 and 0.1 g/l of bacitracin) at the desired protein concentration (iodized CCK bond, 0.1 mg of protein/ml; iodized gastrin bond: 0.5 mg of proteins/ml). They are then incubated in the presence of a labelled ligand in a total volume of 500 μl (about 10 pM for the iodized CCK8, 20 pM for the iodized gastrin13), 50-80 minutes at 25° C., and in the presence or absence of cold agonists. The reaction is stopped with 3 ml of additional BSA buffer (20 g/l) at 4° C., the tubes are centrifuged at 10,000×g, the supernatant is drawn off and the radioactivity associated with the precipitate is evaluated with a γ counter.

Row | Compound | pIC50
1 | CC(C)C[C@H](NC(=O)[C@@H]1CCCN1C(=O)[C@H](CC(C)C)NC(=O)[C@H](CCC(N)=O)NC(=O)[C@@H](N)Cc1ccccc1)C(=O)N[C@@H](CC(=O)O)C(=O)N[C@@H](CCCCN)C(=O)NCC(=O)N[C@@H](CC(N)=O)C(N)=O [Example 29, H-FQLPLDKGN-NH2] (H-FQLPLDKGN-NH2) | 8.00
2 | CSCC[C@H](NC(=O)[C@H](C)NC(=O)[C@@H](NC(=O)[C@@H](N)CCC(=O)O)C(C)C)C(=O)N[C@@H](CC(=O)O)C(=O)N[C@@H](CC(=O)O)C(=O)N[C@@H](Cc1c[nH]cn1)C(=O)N[C@@H](CCCCN)C(=O)N[C@@H](CC(C)C)C(=O)N[C@@H](CO)C(=O)N[C@@H](CC(C)C)C(=O)N[C@@H](CC(=O)O)C(=O)N[C@@H](CCC(=O)O)C(=O)N[C@@H](CC(C)C)C(N)=O [Example 58, H-EVAMDDHKLSLDEL-NH2] (H-EVAMDDHKLSLDEL-NH2) | 6.07
3 | CSCC[C@H](NC(=O)[C@H](C)NC(=O)[C@H](CCCCN)NC(=O)[C@H](CC(N)=O)NC(=O)[C@H](C)NC(=O)[C@H](CCC(=O)O)NC(=O)[C@H](CCC(=O)O)NC(=O)[C@H](CCCCN)NC(=O)[C@H](C)NC(=O)[C@H](CC(=O)O)NC(=O)[C@H](CCC(N)=O)NC(=O)[C@H](CCC(=O)O)NC(=O)[C@H](C)NC(=O)[C@@H](N)Cc1ccccc1)C(N)=O [Example 48, H-FAEQDAKEEANKAM-NH2] (H-FAEQDAKEEANKAM-NH2) | 5.83
4 | CC[C@H](C)[C@H](NC(=O)[C@H](CO)NC(=O)[C@H](Cc1ccccc1)NC(=O)[C@@H]1CCCN1C(=O)[C@@H](NC(=O)[C@H](Cc1ccccc1)NC(=O)[C@H](C)NC(=O)[C@H](CC(=O)O)NC(=O)[C@@H](N)CO)C(C)C)C(N)=O [Example 22, H-SDAFVPFSI-NH2] (H-SDAFVPFSI-NH2) | 5.55
5 | CC(C)C[C@H](NC(=O)[C@H](CO)NC(=O)[C@H](Cc1c[nH]cn1)NC(=O)[C@H](CO)NC(=O)[C@H](CO)NC(=O)[C@@H](N)CO)C(=O)N[C@@H](CO)C(=O)N[C@@H](Cc1c[nH]cn1)C(=O)N[C@@H](CCCCN)C(N)=O [Example 68, H-SSSHSLSHK-NH2] (H-SSSHSLSHK-NH2) | 7.60
6 | CC[C@H](C)[C@H](NC(=O)[C@@H](N)C(C)C)C(=O)N[C@@H](CCC(N)=O)C(=O)N[C@@H](Cc1ccc(O)cc1)C(=O)N[C@@H](CC(C)C)C(=O)N[C@@H](C)C(=O)N[C@@H](Cc1c[nH]cn1)C(=O)N[C@H](C(=O)N[C@@H](C)C(=O)N[C@@H](CO)C(=O)N[C@@H](CO)C(=O)N[C@@H](Cc1c[nH]cn1)C(=O)N[C@@H](CCCCN)C(N)=O)C(C)C [Example 63, H-VIQYLAHVASSHK-NH2] (H-VIQYLAHVASSHK-NH2) | 7.70
7 | CC[C@H](C)[C@H](NC(=O)[C@H](CC(N)=O)NC(=O)[C@H](Cc1c[nH]cn1)NC(=O)[C@@H](N)CC(C)C)C(=O)N[C@@H](CC(C)C)C(=O)NCC(=O)N[C@H](C(=O)N[C@@H](CCC(=O)O)C(=O)N[C@H](C(=O)NCC(=O)NCC(=O)N1CCC[C@H]1C(=O)NCC(N)=O)[C@@H](C)O)C(C)C [Example 33, H-LHNILGVETGGPG-NH2] (H-LHNILGVETGGPG-NH2) | 7.00
8 | C[C@H](NC(=O)[C@H](CCC(=O)O)NC(=O)[C@@H]1CCCN1C(=O)[C@H](CCC(N)=O)NC(=O)[C@H](Cc1ccccc1)NC(=O)[C@H](CO)NC(=O)[C@H](CO)NC(=O)[C@@H](N)CCC(=O)O)C(=O)NCC(=O)N[C@@H](Cc1ccccc1)C(N)=O [Example 24, H-ESSFQPEAGF-NH2] (H-ESSFQPEAGF-NH2) | 6.64
9 | CC(C)[C@H](NC(=O)[C@@H](NC(=O)[C@H](CCCCN)NC(=O)[C@@H]1CCCN1C(=O)[C@@H](NC(=O)[C@@H](NC(=O)[C@H](C)NC(=O)[C@H](CCCNC(=N)N)NC(=O)[C@@H]1CCCN1)[C@@H](C)O)[C@@H](C)O)[C@@H](C)O)C(=O)N[C@@H](CCCNC(=N)N)C(=O)N[C@@H](CO)C(N)=O [Example 42, H-PRATTPKTVRS-NH2] (H-PRATTPKTVRS-NH2) | 6.25
10 | CSCC[C@H](NC(=O)[C@@H](N)CC(=O)O)C(=O)N[C@H](C(=O)N[C@H](C(=O)N[C@@H](Cc1ccccc1)C(=O)N[C@@H](CC(C)C)C(=O)N[C@@H](CC(=O)O)C(=O)NCC(=O)NCC(=O)N[C@@H](CCC(N)=O)C(=O)N[C@@H](CC(C)C)C(=O)NCC(=O)N[C@H](C(=O)N[C@@H](CC(C)C)C(=O)N[C@H](C(N)=O)C(C)C)[C@@H](C)O)C(C)C)C(C)C [Example 18, H-DMVVFLDGGQLGTLV-NH2] (H-DMVVFLDGGQLGTLV-NH2) | 6.10
11 | CC[C@H](C)[C@H](NC(=O)[C@H](CCC(=O)O)NC(=O)[C@H](C)NC(=O)[C@@H](N)C(C)C)C(=O)N[C@@H](CCC(N)=O)C(=O)NCC(=O)N[C@@H](Cc1c[nH]cn1)C(=O)N[C@@H](C)C(=O)NCC(N)=O [Example 32, H-VAEIQGHAG-NH2] (H-VAEIQGHAG-NH2) | 6.70
12 | CC[C@H](C)[C@H](NC(=O)[C@H](C)NC(=O)[C@@H](NC(=O)[C@H](CCC(=O)O)NC(=O)[C@H](CCC(=O)O)NC(=O)[C@@H](NC(=O)CNC(=O)[C@H](Cc1ccccc1)NC(=O)[C@@H](NC(=O)[C@H](CC(=O)O)NC(=O)[C@@H](N)[C@@H](C)O)[C@@H](C)CC)C(C)C)[C@@H](C)O)C(N)=O [Example 56, H-TDIFGVEETAI-NH2] (H-TDIFGVEETAI-NH2) | 6.14
13 | CC[C@H](C)[C@H](NC(=O)CNC(=O)[C@H](CCC(=O)O)NC(=O)[C@H](CC(C)C)NC(=O)[C@@H](N)CO)C(=O)N[C@@H](Cc1ccccc1)C(=O)N[C@@H](CC(=O)O)C(=O)N[C@@H](CC(=O)O)C(=O)N[C@H](C(=O)N[C@H](C(=O)N1CCC[C@H]1C(=O)N[C@@H](CC(=O)O)C(N)=O)C(C)C)[C@@H](C)CC [Example 20, H-SLEGIFDDIVPD-NH2] (H-SLEGIFDDIVPD-NH2) | 6.46
14 | CC(C)C[C@H](NC(=O)[C@H](C)N)C(=O)N[C@@H](CCC(=O)O)C(=O)N[C@@H](Cc1c[nH]c2ccccc12)C(=O)N[C@@H](CC(C)C)C(=O)NCC(=O)N[C@@H](C)C(=O)N[C@@H](CC(=O)O)C(=O)N[C@@H](CCCNC(=N)N)C(=O)N[C@@H](CC(N)=O)C(=O)N[C@@H](CCC(=O)O)C(N)=O [Example 37, H-ALEWLGADRNE-NH2] (H-ALEWLGADRNE-NH2) | 6.10
15 | CC[C@H](C)[C@H](NC(=O)[C@@H]1CCCN1C(=O)CNC(=O)CN)C(=O)N[C@@H](CO)C(=O)N[C@@H](Cc1ccccc1)C(=O)N[C@@H](CO)C(=O)N[C@@H](CO)C(=O)N[C@@H](CO)C(=O)N[C@@H](CCCNC(=N)N)C(=O)N[C@@H](CO)C(N)=O [Example 25, H-GGPISFSSSRS-NH2] (H-GGPISFSSSRS-NH2) | 6.51
16 | CC(C)C[C@H](NC(=O)[C@H](CCCCN)NC(=O)[C@H](CO)NC(=O)[C@@H](N)CCC(=O)O)C(=O)N[C@@H](CCC(=O)O)C(=O)N[C@@H](CCCNC(=N)N)C(=O)N[C@H](C(=O)N1CCC[C@H]1C(=O)N[C@@H](CCC(N)=O)C(=O)N[C@@H](CCCCN)C(=O)N[C@@H](CC(N)=O)C(=O)N[C@H](C(=O)N[C@@H](CCC(N)=O)C(N)=O)C(C)C)[C@@H](C)O [Example 41, H-ESKLERTPQKNVQ-NH2] (H-ESKLERTPQKNVQ-NH2) | 6.60
17 | CC[C@H](C)[C@H](NC(=O)[C@H](CCCCN)NC(=O)[C@H](Cc1ccccc1)NC(=O)[C@H](CCC(N)=O)NC(=O)[C@H](C)NC(=O)[C@H](Cc1c[nH]c2ccccc12)NC(=O)[C@@H](N)CCC(N)=O)C(=O)N[C@@H](CCC(N)=O)C(=O)N[C@@H](Cc1c[nH]c2ccccc12)C(=O)N[C@@H](CC(N)=O)C(=O)N[C@@H](CCC(N)=O)C(=O)N[C@@H](CCCNC(=N)N)C(=O)N[C@@H](Cc1c[nH]c2ccccc12)C(N)=O [Example 61, H-QWAQFKIQWNQRW-NH2] (H-QWAQFKIQWNQRW-NH2) | 5.95
